Reference: US20030104507A1, “Method for detection of ATP” (priority 2001, published 2003)

Tested on: LucPpe2m146
Assay: Stability of reagent composition with LucPpe2m146 and detergent (RT, pH 7.0)
Format: biochemical, Photuris pennsylvanica
Text: The detergents used for inhibition of endogenous ATPase activity in a sample also affect activity of luciferase. […] It is ultimately the extended stability of a reagent composition, comprising an ATPase inhibitor and a luciferase enzyme, which provides a composition useful for measuring ATP, in a sample or samples, over an extended period of time.
In this experiment, the stability of a reagent composition comprising wild type LucPpy was compared to the stability of a reagent composition comprising LucPpe2m146 at about 23° C. (room temperature). The various reagent compositions had varying detergent concentrations.
Two solutions were created as listed below. One contained the luciferase, luciferin, MgSO4, and buffer (reagent composition). The other solution contained media plus ATP (media solution).
50 μg/ml enzyme (LucPpy is Promega catalog #E170A)
Detergent (at various concentrations, see table below)
For each reagent composition, all ingredients except the luciferase enzyme were assembled; the enzyme was then added immediately before the first luminescence reading was taken. Immediately after addition of enzyme to each reagent composition and for various timepoints thereafter, 100 μl aliquots of the reagent composition were added to wells of a 96-well microtitre luminometer plate in triplicate. To these were added 100 μl Media Solution containing the ATP. Luminescence was then immediately read on a Dynex MLX microtitreplate luminometer, 0.5 second reads per well. The average relative light unit values as well as the reaction half lives are listed below in Table I and the percent of original luminescence remaining at each timepoint is listed in Table J below. The timepoint at the top of the column indicates the time at which the first rlu measurement for the samples in that column was read. […] Times listed in Table I are the same for Table J. The values for sulfobetaine and for CTAB were generated on different days, they are presented with the control values generated in the same experiment.

CCCCCCCCCCCCOS(=O)(=O)[O-].[Na+] [SDS, Sodium dodecyl sulfate]
Average Relative Light Units (LucPpe2m146, 0.002%, 1.0 min (head r67)): 24265.83 rlu | Percent of Luminescence Remaining (LucPpe2m146, 0.002%, 1.0 min (times of Table I r67)): 100.00% | Average Relative Light Units (LucPpe2m146, 0.002%, 34 min (head r67)): 24213.97 rlu | Percent of Luminescence Remaining (LucPpe2m146, 0.002%, 34 min (times of Table I r67)): 99.79% | Average Relative Light Units (LucPpe2m146, 0.002%, 65 min (head r67)): 24725.73 rlu | Percent of Luminescence Remaining (LucPpe2m146, 0.002%, 65 min (times of Table I r67)): 101.90% | Average Relative Light Units (LucPpe2m146, 0.002%, 115 min (head r67)): 22654.87 rlu | Percent of Luminescence Remaining (LucPpe2m146, 0.002%, 115 min (times of Table I r67)): 93.36% | Average Relative Light Units (LucPpe2m146, 0.002%, 175 min (head r67)): 23856.73 rlu | Percent of Luminescence Remaining (LucPpe2m146, 0.002%, 175 min (times of Table I r67)): 98.31% | Average Relative Light Units (LucPpe2m146, 0.002%, 238 min (head r67)): 23425.5 rlu | Percent of Luminescence Remaining (LucPpe2m146, 0.002%, 238 min (times of Table I r67)): 96.54% | Average Relative Light Units (LucPpe2m146, 0.002%, 286 min (head r67)): 23275.6 rlu | Percent of Luminescence Remaining (LucPpe2m146, 0.002%, 286 min (times of Table I r67)): 95.92% | Average Relative Light Units (LucPpe2m146, 0.01%, 1.0 min (head r54)): 24.46 rlu | Percent of Luminescence Remaining (LucPpe2m146, 0.01%, 1.0 min (times of Table I r54)): 100.00% | Average Relative Light Units (LucPpe2m146, 0.01%, 34 min (head r54)): 27.85 rlu | Percent of Luminescence Remaining (LucPpe2m146, 0.01%, 34 min (times of Table I r54)): 113.85% | Average Relative Light Units (LucPpe2m146, 0.01%, 65 min (head r54)): 10.77 rlu | Percent of Luminescence Remaining (LucPpe2m146, 0.01%, 65 min (times of Table I r54)): 44.02% | Average Relative Light Units (LucPpe2m146, 0.01%, 115 min (head r54)): 6.45 rlu | Percent of Luminescence Remaining (LucPpe2m146, 0.01%, 115 min (times of Table I r54)): 26.38% | Average Relative Light Units (LucPpe2m146, 0.01%, 175 min (head r54)): 2.02 rlu | Percent of Luminescence Remaining (LucPpe2m146, 0.01%, 175 min (times of Table I r54)): 8.25% | Average Relative Light Units (LucPpe2m146, 0.01%, 238 min (head r54)): 2.44 rlu | Percent of Luminescence Remaining (LucPpe2m146, 0.01%, 238 min (times of Table I r54)): 9.97% | Average Relative Light Units (LucPpe2m146, 0.01%, 286 min (head r54)): 0.62 rlu | Percent of Luminescence Remaining (LucPpe2m146, 0.01%, 286 min (times of Table I r54)): 2.53% | Average Relative Light Units (LucPpe2m146, 0.05%, 15 min (head r41)): 0.018 rlu | Percent of Luminescence Remaining (LucPpe2m146, 0.05%, 15 min (times of Table I r41)): 100.00% | Average Relative Light Units (LucPpe2m146, 0.05%, 72 min (head r41)): 0.012 rlu | Percent of Luminescence Remaining (LucPpe2m146, 0.05%, 72 min (times of Table I r41)): 65.68% | Average Relative Light Units (LucPpe2m146, 0.05%, 124 min (head r41)): 0.001 rlu | Percent of Luminescence Remaining (LucPpe2m146, 0.05%, 124 min (times of Table I r41)): 6.09% | Average Relative Light Units (LucPpe2m146, 0.05%, 190 min (head r41)): 0.006 rlu | Percent of Luminescence Remaining (LucPpe2m146, 0.05%, 190 min (times of Table I r41)): 35.06% | Average Relative Light Units (LucPpe2m146, 0.05%, 251 min (head r41)): 0.016 rlu | Percent of Luminescence Remaining (LucPpe2m146, 0.05%, 251 min (times of Table I r41)): 87.64%
